What was measured:
[1] = test system: Jurkat cells (acute T-cell leukemia); assay: Chemosensitivity assay (MTT-assay), Jurkat; format: cell-based, human; settings: 96 hours of incubation, mean ± SEM
Experimental: Depending on the characteristics of the cells, two different assays were performed. For adherently growing cells (HaCaT, HT-29, NCI-H460, SK-MEL-3, MG-63, Capan-1), cytotoxic and cytocidal effects were determined in the crystal violet assay, whereas for loosely adherent cells (LNCaP, SK-ES-1) and cells growing in suspension (HEL 92.1.7, Jurkat, U-937) the MTT-assay was used with minor modifications. In brief, 1.5 · 10^3 (HaCaT, HT-29, NCI-H460, SK-MEL-3, MG-63, Capan-1) or 5 · 10^3 (Jurkat, U-937, HEL92.1.7, LNCaP, SK-ES-1) cells per well were seeded into flat-bottom 96-well plates (Sarstedt, Nümbrecht, Germany). All compounds were used as solutions prepared in DMSO and tested at final concentrations (8 replicates per concentration) of 1, 3, 10, 30 and 50 μM. In case of the vehicle control and test compounds, the final DMSO concentration amounted to 0.1%. Absorbance was measured at 580 nm in a 96-well plate reader (GENios pro microplate reader, Tecan, Salzburg, Austria). Effects were quantified as previously described for both assays.

[2] = test system: Jurkat cells; assay: Detection of apoptosis (annexin V/propidium iodide assay); format: cell-based, human
Experimental: Apoptosis was determined by incubating proliferating Jurkat cells with medium containing 1, 2, 4 or 5 at a concentration of 10 μM or 0.1% of DMSO (untreated control). After different periods of incubation (6, 24, 48 hours), samples were analyzed using the Annexin V-FITC apoptosis detection kit l (BD Biosciences, Heidelberg, Germany) according to the manufacturer’s protocol using 10^6 cells/mL. Cells were analyzed using a FACSCalibur flow cytometer (BD Biosciences, Heidelberg, Germany). The compensation was performed for each experiment with annexin V-FITC (530/30 BP filter) and propidium iodide (585/42 BP filter), respectively. At least 1 · 10^4 events were registered per sample and debris as well as cell aggregates were excluded by forward (FSC) versus side scatter (SSC) gates. Raw data were analyzed using FlowJo V10 software (Treestar Inc., Ashland, OR, USA).

[3] = biological target: T1, OCT1 (Homo sapiens, UniProt O15245); assay: Flow cytometric ASP+-uptake inhibition, HEK-OCT1; format: cell-based; settings: for IC50: IC50, inhibition of ASP+-uptake, HEK-OCT1, 1 μM ASP+, ± SEM (N = 3)
T1 construct: containing the full length SLC22A1 cDNA (NM_003057) encoding the human OCT1 protein; expressed in transfected cells
T1 sequence (O15245 1-554): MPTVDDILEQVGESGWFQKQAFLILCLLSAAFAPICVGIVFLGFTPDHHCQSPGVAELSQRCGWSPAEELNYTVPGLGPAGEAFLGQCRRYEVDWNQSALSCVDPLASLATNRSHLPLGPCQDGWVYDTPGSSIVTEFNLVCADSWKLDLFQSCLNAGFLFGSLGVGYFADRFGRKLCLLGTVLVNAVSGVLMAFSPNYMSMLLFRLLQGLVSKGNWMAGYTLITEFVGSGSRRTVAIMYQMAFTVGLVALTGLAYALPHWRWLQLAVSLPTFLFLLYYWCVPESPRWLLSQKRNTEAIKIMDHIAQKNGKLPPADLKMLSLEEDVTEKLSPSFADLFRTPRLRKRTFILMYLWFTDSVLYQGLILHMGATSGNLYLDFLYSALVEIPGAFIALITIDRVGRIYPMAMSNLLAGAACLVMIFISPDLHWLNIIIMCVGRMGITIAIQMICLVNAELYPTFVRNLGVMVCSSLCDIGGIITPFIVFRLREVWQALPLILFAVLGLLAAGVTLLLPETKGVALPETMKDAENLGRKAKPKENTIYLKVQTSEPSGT
Experimental: The previously described fluorescent substrate of organic cation transporters, 4-(4-dimethylaminostyryl)-N-methylpyridinium (ASP^+), was used to determine the function of OCT1 and OCT3 by flow cytometry in the absence and the presence of bendamustine and selected bendamustine esters. HEK293 cells expressing the transporter of interest were trypsinized and washed twice with PBS, prior to re-suspension of 0.5 · 10^6 cells in 500 μL of PBS containing 2% (v/v) FCS. The cells were incubated with ASP^+ (100 μM stock solution in PBS containing 10% DMSO) for 5 minutes, allowing for cellular accumulation, and subsequently analyzed with a FACSCalibur flow cytometer. ASP^+ was excited at 488 nm and the fluorescence was measured using a 530/30 nm and a 585/42 band-pass filter. At least 1 · 10^4 single cells were analyzed by appropriate FSC/SSC gating.
The cells were pre-incubated with the respective test compound at different concentrations at room temperature for 10 minutes. Afterwards, ASP^+ was added to a final concentration of 1 μM, and the samples were incubated at 37°C in the dark for 5 minutes. Subsequently, the cells were washed, re-suspended in ice-cold PBS/FCS and stored on ice in the dark until measurement.
The normalized mean fluorescence intensities of the OCT expressing cells, set to 100% in the absence of an inhibitor, were calculated by subtracting the mean fluorescence intensity of unspecific ASP^+ uptake into HEK-Co control cells. The normalized fluorescence intensities in the presence of an inhibitor were plotted against the logarithm of the concentrations of the test compounds to calculate IC50 values. The “log (inhibitor) vs. normalized response-variable slope” equation of GraphPad Prism 5.01 was used for this purpose.

Structure (SMILES) | IC50 [1] | IC50 ([1]; Homo sapiens, 96 h) | effect on apoptosis compared to the control cells ([2]; 10 μM, regardless of the period of incubation (6, 24, 48 hours)) | IC50 [3] | inhibition at 5 min, 200 µM ([3]; human, 200 μM (highest examined concentration)) | fraction of early apoptotic cells ([2]; 10 μM, 24 hours) | fraction of early apoptotic cells ([2]; 10 μM, 48 hours) | fraction of secondary necrotic cells ([2]; 10 μM, 48 hours) | fraction of early apoptotic cells ([2]; 10 μM, 6 hours) | cells either early apoptotic or secondary necrotic ([2]; 10 μM, 24 hours) | fraction of secondary necrotic cells ([2]; 10 μM, 24 hours) | viability at 10 µM ([2]; Homo sapiens, Jurkat, 48 h, two days after treatment, read-out: viable cells) | potency factor relative to TPA at OCT1 ([3]; from IC50 values)
Cn1c(CCCC(=O)O)nc2cc(N(CCCl)CCCl)ccc21 [Compound 1, bendamustine, reference compound] | 43.4 ± 4.8 µM | 43 µM | no effect | > 200 µM | 35% | – | – | – | – | – | – | – | –
COC(=O)CCCc1nc2cc(N(CCCl)CCCl)ccc2n1C [Compound 2] | – | 3.1 ± 0.1 µM | – | 11.3 ± 1.9 µM | – | approximately 10% | 15% | 20–25% | – | – | – | – | –
Cn1c(CCCC(=O)OCCN2CCOCC2)nc2cc(N(CCCl)CCCl)ccc21 [Compound 4] | – | 3.2 ± 1 µM | – | 10.1 ± 2.5 µM | – | approximately 10% | 15% | 20–25% | – | – | – | – | –
Cn1c(CCCC(=O)OCCN2CCCC2)nc2cc(N(CCCl)CCCl)ccc21 [Compound 5] | – | 0.61 ± 0.02 µM | – | 0.35 ± 0.03 µM | – | 20% | – | 70% | ~ 2.5% | Approximately 50% | 30% | ~15% | approximately 20

Reference: publication PMC4721923 (PLoS ONE, 2015)
